US20220211796A1, “PEPTIDE ANTIBIOTICS AND METHODS OF USE THEREOF” (priority 2019, published 2022)
In brackets after ≈: the same amount, converted by molar mass. Numbered stars: 1 amine (or outer) side, 2 acyl side, 3 side chain; on linkers, the order of the positions; unused ones are H or OH. Bridge positions count the residues as written; N and C are the ends. Square brackets hold non-standard residues; d marks the D form. Peptide text beside a SMILES is read from it. TBMB = c1c(C[*:1])cc(C[*:3])cc1C[*:2]

Experiments:
Assay in all cases: microbe, parasite or virus in culture
B. subtilis ATCC 6633 = test system: B. subtilis ATCC 6633
Protocol: (§1) The L-peptides identified from five different phage display libraries were catalogued as described previously and selected sequences were synthesized in D-enantiomeric form by SPPS for further investigation in several biological assays.
(§2) MICs were determined according to a 96-well microdilution protocol outlined by the Clinical and Laboratory Standard Institute (CLSI) guideline with modifications for peptide antibiotics reported by Wiegand et al.^35 Two-fold serial peptide dilutions were performed to go from 2560 μg/ml to 5 μg/ml in0.2% BSA and 0.01% acetic acid buffer in 96-well polypropylene plates (COSTAR, #3879). Dilution of bacterial suspensions (1:200) of different bacterial strains that were grown until 0.5 McFarland standard were prepared to obtain a final inoculum concentration of 8×10^5 CFU/ml in Mueller-Hinton broth.

E. coli ATCC 25992 = test system: E. coli ATCC 25992
Protocol: as §1, §2

E. faecalis ATCC 29121 = test system: E. faecalis ATCC 29121
Protocol: as §1, §2

[1] = test system: Methicillin-resistant S. aureus (MRSA) ATCC 43300
Protocol: as §1, §2

S. aureus ATCC 6538 = test system: S. aureus ATCC 6538
Protocol: as §1, §2

[2] = test system: high level vancomycin resistant E. faecium (vanA) ATCC 51559
Protocol: as §1, §2

[3] = test system: low level vancomycin resistant E. faecium (vanB) ATCC 51299
Protocol: as §1, §2

[4] = Table 5, low level vancomycin resistant E. faecium ATCC 51299

SMILES | MIC B. subtilis (B. subtilis ATCC 6633; ATCC 6633) | MIC E. coli (E. coli ATCC 25992; ATCC 25992) | MIC E. faecalis (E. faecalis ATCC 29121; ATCC 29121) | MIC MRSA ([1]; ATCC 43300) | MIC S. aureus (S. aureus ATCC 6538; ATCC 6538) | MIC VRE (vanA) ([2]; ATCC 51559) | MIC VRE (vanB) [3, 4] | further results
CC(C)C[C@@H](NC(=O)[C@H](NC(=O)[C@@H](Cc1ccc(O)cc1)NC(=O)[C@@H](CS)NC(=O)[C@@H](CS)NC(=O)[C@H](N)CCCCN)[C@H](C)O)C(=O)N1CCC[C@@H]1C(N)=O [P5, KCCYTLP] (H-[dK][dC][dC][dY][dT][dL][dP]-NH2) | 128 µg/mL (≈ 155 µM) | >256 µg/mL | >256 µg/mL | >256 µg/mL | 128 µg/mL (≈ 155 µM) | >256 µg/mL | >256 µg/mL | –
CC(C)C[C@@H](NC(=O)[C@H](N)C(C)C)C(=O)N[C@@H](C(=O)N[C@H](CCCNC(=N)N)C(=O)N[C@H](CS)C(=O)N[C@H](CS)C(=O)NCC(N)=O)[C@H](C)O [P6, VLTRCCG] (H-[dV][dL][dT][dR][dC][dC]G-NH2) | 128 µg/mL (≈ 171 µM) | >256 µg/mL | >256 µg/mL | >256 µg/mL | 128 µg/mL (≈ 171 µM) | >256 µg/mL | >256 µg/mL | –
CSCC[C@H]1NC(=O)[C@H]2CCCN2C(=O)[C@@H]([C@H](C)O)NC(=O)[C@@H](C)NC(=O)CNC(=O)[C@@H](CCCNC(=N)N)NC(=O)[C@H](N)CSSC[C@H](C(N)=O)NC(=O)[C@@H](CO)NC1=O [P10, CRGATPMSC] (H-[dC][dR]G[dA][dT][dP][dM][dS][dC]-NH2; disulfide 1-9) | – | – | – | – | – | – | >256 µg/mL | MIC B. subtilis (B. subtilis ATCC 6633; Table 5, B. subtilis ATCC 6633): 128 µg/mL (≈ 139 µM); MIC E. coli (E. coli ATCC 25992; Table 5, E. coli ATCC 25992): >256 µg/mL; MIC E. faecalis (E. faecalis ATCC 29121; Table 5, E. faecalis ATCC 29121): 256 µg/mL (≈ 278 µM); MIC MRSA ([1]; Table 5, MRSA ATCC 43300): 128 µg/mL (≈ 139 µM); MIC S. aureus (S. aureus ATCC 6538; Table 5, S. aureus ATCC 6538): 128 µg/mL (≈ 139 µM); MIC VRE (vanA) ([2]; Table 5, high level vancomycin resistant E. faecium ATCC 51559): >256 µg/mL
CC[C@@H](C)[C@H]1NC(=O)[C@@H](C(C)C)NC(=O)[C@H]2CSCc3cc(cc(c3)CSC[C@H](C(N)=O)NC(=O)[C@@H](CC(=O)O)NC1=O)CSC[C@@H](N)C(=O)N[C@H](CC(C)C)C(=O)N[C@H](CO)C(=O)N[C@H](CCC(N)=O)C(=O)N[C@H](Cc1ccccc1)C(=O)N2 [P17, CLSQFCVIDC] (H-[dC][dL][dS][dQ][dF][dC][dV][dI][dD][dC]-NH2; linker 1-6-10 via TBMB) | – | – | – | – | – | – | – | MIC B. subtilis (B. subtilis ATCC 6633; Table 6, B. subtilis ATCC6633): 128 µg/mL (≈ 103 µM); MIC E. coli (E. coli ATCC 25992; Table 6, E. Coli ATCC25992): >256 µg/mL; MIC E. faecalis (E. faecalis ATCC 29121; Table 6, E. faecalis ATCC29121): >256 µg/mL; MIC MRSA ([1]; Table 6, MRSA ATCC43300): >256 µg/mL; MIC S. aureus (S. aureus ATCC 6538; Table 6, S. aureus ATCC6538): 128 µg/mL (≈ 103 µM); MIC VRE (vanA) ([2]; Table 6, high level vancomycin resistant E. faecium ATCC51559): >256 µg/mL; MIC VRE (vanB) ([3]; Table 6, low level vancomycin resistant E. faecium ATCC51299): >256 µg/mL
CC(C)C[C@H]1NC(=O)[C@H](N)CSSC[C@H](C(N)=O)NC(=O)[C@@H]([C@H](C)O)NC(=O)[C@@H](C)NC(=O)CNC(=O)[C@@H]([C@H](C)O)NC(=O)[C@@H](CO)NC(=O)[C@@H](Cc2c[nH]c3ccccc23)NC1=O [P12, CLWSTGATC] (H-[dC][dL][dW][dS][dT]G[dA][dT][dC]-NH2; disulfide 1-9) | 64 µg/mL (≈ 68.2 µM) | >256 µg/mL | 128 µg/mL (≈ 136 µM) | 64 µg/mL (≈ 68.2 µM) | 64 µg/mL (≈ 68.2 µM) | >256 µg/mL | >256 µg/mL | –
CC[C@@H](C)[C@@H](NC(=O)[C@@H](Cc1ccc(O)cc1)NC(=O)[C@H](N)Cc1c[nH]cn1)C(=O)N[C@H](CC(=O)O)C(=O)N[C@H](Cc1ccccc1)C(=O)N[C@H](CCCNC(=N)N)C(=O)N[C@H](Cc1c[nH]c2ccccc12)C(N)=O [P8, HYIDFRW] (H-[dH][dY][dI][dD][dF][dR][dW]-NH2) | 32 µg/mL (≈ 30.9 µM) | >256 µg/mL | 64 µg/mL (≈ 61.8 µM) | 64 µg/mL (≈ 61.8 µM) | – | >256 µg/mL | >256 µg/mL | –
